The text below walks through data of patent publication US10053457B2, “Hydroxyalkyl-piperazine derivatives as CXCR3 receptor modulators” (IDORSIA PHARMACEUTICALS LTD, priority 2015, dated 2018).

One assay deals with human CXCR3A (Homo sapiens (Human), UniProt P49682). Description: FLIPR assay (CXCL10-induced calcium signal). The format is cell-based. The settings on record: CHO-K1 cells expressing human CXCR3A coupled to Galpha(16); CXCL10 agonist 20 nM; mean values. The text has this:
(§1) In the case where IC50 values have been determined several times for the same compound, mean values are given.

The target in another assay is CXCR3 (Homo sapiens (Human), UniProt P49682). Description: Receptor internalization assay in human whole blood (CXCR3 surface expression on CD4 positive cells, CXCL10). It counts as cell-based. The settings on record: final CXCL10 9 nM, 30 min at 37° C., mean values. The method, then:
Diluted compounds are then mixed with an equal volume of CXCL10 (Peprotech) diluted in PBS. Anticoagulated venous human whole blood is added to the mixture, which is then incubated in a CO2 incubator at 37° C. to allow for ligand mediated receptor internalization (final CXCL10 concentration is 9 nM). After 30 min, the blood is mixed with fluorescently labeled CXCR3 and CD4 specific antibodies (Becton Dickinson) and incubated on ice for 10 minutes. Samples are then mixed with BD FACS Lysing Solution (Becton Dickinson) in order to eliminate red blood cells. After washing the cells with PBS containing 0.5% BSA, the samples are then analyzed in a flow cytometer (FACS Canto II, Becton Dickinson). For data analysis using FACSDiva software (Becton Dickinson), the mean fluorescence corresponding to CXCR3 cell surface expression was determined on CD4 positive cells. The program GraphPad Prism or similar software is used to fit the data to a single site dose response curve and to calculate IC50 values.
as §1

Sequence of CXCR3 (P49682 whole entry): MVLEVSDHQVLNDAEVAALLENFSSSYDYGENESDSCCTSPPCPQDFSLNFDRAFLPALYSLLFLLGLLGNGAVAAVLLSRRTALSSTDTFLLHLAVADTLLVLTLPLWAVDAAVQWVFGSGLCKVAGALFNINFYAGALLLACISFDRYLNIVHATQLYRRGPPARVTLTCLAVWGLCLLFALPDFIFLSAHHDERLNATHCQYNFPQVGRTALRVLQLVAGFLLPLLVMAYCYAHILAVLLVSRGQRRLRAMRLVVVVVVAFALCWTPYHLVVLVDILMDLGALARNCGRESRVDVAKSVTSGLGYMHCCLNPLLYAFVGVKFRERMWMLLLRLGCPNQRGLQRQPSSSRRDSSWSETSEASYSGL
Sequence of human CXCR3A (P49682 whole entry): as above

For orientation: IC50 means the concentration at which inhibition is half-maximal. `CC(O)c1ncn(CC(=O)N2CCN(c3sc(C(F)(F)F)nc3-c3cnc(C(F)(F)F)nc3)C[C@@H]2CO)n1` (stereo partly drawn) [Example 21, 2-[3-(1-Hydroxy-ethyl)-[1,2,4]triazol-1-yl]-1-{(R)-2-hydroxymethyl-4-[2-trifluoromethyl-4-(2-trifluoromethyl-pyrimidin-5-yl)-thiazol-5-yl]-piperazin-1-yl}-ethanone]: the values for the IC50 on human CXCR3A and at CXCR3 were 4.3 nM and 737 nM, respectively.
Taken in the same sequence, the figures for `O=C(Cn1cnc(-c2ccccn2)n1)N1CCN(c2sc(C(F)(F)F)nc2-c2cnc(C(F)(F)F)nc2)C[C@@H]1CO` [Example 23, 1-{(R)-2-Hydroxymethyl-4-[2-trifluoromethyl-4-(2-trifluoromethyl-pyrimidin-5-yl)-thiazol-5-yl]-piperazin-1-yl}-2-(3-pyridin-2-yl-[1,2,4]triazol-1-yl)-ethanone] were 35 nM and 2730 nM.
Regarding `CCc1nc(C)n(CC(=O)N2CCN(c3sc(C(F)(F)F)nc3-c3cnc(C(F)(F)F)nc3)C[C@@H]2CO)n1` [Example 24, 2-(3-ethyl-5-methyl-[1,2,4]triazol-1-yl)-1-{(R)-2-hydroxymethyl-4-[2-trifluoromethyl-4-(2-trifluoromethyl-pyrimidin-5-yl)-thiazol-5-yl]-piperazin-1-yl}-ethanone], the IC50 turned out to be 7.6 nM on human CXCR3A and 355 nM at CXCR3.
For `CCc1nc(C)nn1CC(=O)N1CCN(c2sc(C(F)(F)F)nc2-c2cnc(C(F)(F)F)nc2)C[C@@H]1CO` [Example 25, 2-(5-ethyl-3-methyl-[1,2,4]triazol-1-yl)-1-{(R)-2-hydroxymethyl-4-[2-trifluoromethyl-4-(2-trifluoromethyl-pyrimidin-5-yl)-thiazol-5-yl]-piperazin-1-yl}-ethanone], the IC50 was determined as 3.6 nM at human CXCR3A and 664 nM on CXCR3.
`O=C(Cn1cnc2cccnc21)N1CCN(c2sc(C(F)(F)F)nc2-c2cnc(C(F)(F)F)nc2)C[C@@H]1CO` [Example 26, 1-{(R)-2-Hydroxymethyl-4-[2-trifluoromethyl-4-(2-trifluoromethyl-pyrimidin-5-yl)-thiazol-5-yl]-piperazin-1-yl}-2-imidazo[4,5-b]pyridin-3-yl-ethanone]: the values for the IC50 at human CXCR3A and against CXCR3 were 3.5 nM and 74.2 nM, respectively.
Taken in the same sequence, the figures for `O=C(Cn1cnc(C(F)F)n1)N1CCN(c2sc(C(F)(F)F)nc2-c2cnc(C(F)(F)F)nc2)C[C@@H]1CO` [Example 38, 2-(3-Difluoromethyl-[1,2,4]triazol-1-yl)-1-{(R)-2-hydroxymethyl-4-[2-trifluoromethyl-4-(2-trifluoromethyl-pyrimidin-5-yl)-thiazol-5-yl]-piperazin-1-yl}-ethanone] were 8.6 nM and 258 nM.
